Consider 13 molecules from patent EP4678638A1, “NEW E3 UBIQUITIN LIGASE LIGAND, PROTEIN DEGRADATION AGENT AND USE THEREOF” (priority 2023, dated 2024).

In experiment [1] the test system is MM.1R. Put plainly: CCK-8 proliferation, MM.1R. It counts as cell-based. The following applies: CCK-8, 72 hours, read-out: Inhibitory activity (IC50) on tumor cell proliferation, MM.1R. The method, then: (§1) The tumor cells used herein were cultured in a cell culture medium listed in table A1 at 37°C in an incubator with 5% CO2. Prior to experimentation, all cell lines used were correctly identified by STR profiling, and tested negative for mycoplasma contamination using a mycoplasma detection kit through routine screenings. Table A1. Tumor cells and cell culture medium used in the present disclosure
(§2) IC50 values of the compounds of the present disclosure (including the compounds in Table 1, and compounds of examples) were measured using the Meilun Cell Counting Kit-8 kit from Dalian Meilun Biotech Co., Ltd. Assay details are as follows: tumor cells were seeded in a 96-well plate at a density listed in Table A2. After 24h, 100 µL of the inoculated cells were treated with 0.5µL of the compounds of the present disclosure (including the compounds in Tables 1 and 2, and compounds of examples) at 10 different successively decreasing concentrations (starting at the highest concentration of 10µM; 5-fold serial dilutions). After the cells were treated with the compounds of the present disclosure for a period of time, the cell viability detection reagent was added to the culture medium for cell viability assessment according to the instructions provided with the CCK-8 kit. […] The growth inhibition of the compounds of the present disclosure on cells was plotted by Prism Graphpad software, and the IC50 values of the compounds of the present disclosure were calculated therefrom. […] Seeding protocol and treatment time for tumor cells

The subject of experiment [2] is PC-9. The experiment in a line: CCK-8 proliferation, PC-9. It counts as cell-based, Human. The following applies: Homo sapiens, PC-9; CCK-8; 96 hours; read-out: Inhibitory activity (IC50) on tumor cell proliferation, PC-9. A digest of the protocol: (§3)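 CCK-8 viability readout; IC50 from growth-inhibition curve fitting. Cells plated, dosed 24h later with a 10-point series, top 10µM, 5-fold steps. Culture at 37°C, 5% CO2.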

Experiment [3] concerns H1975-1µM Osimertinib cells. Put plainly: CCK-8 proliferation, osimertinib-resistant H1975 cells. Conditions: Homo sapiens, NCI-H1975; CCK-8; osimertinib-resistant H1975 cells obtained by treating H1975 cells with 1 µM Osimertinib for 3 months; read-out: Inhibitory activity (IC50) on tumor cell proliferation, H1975-1µm Osimertinib. It is filed as cell-based, Human. The method, then:
as §1, §2

In experiment [4] the test system is H1975. The experiment in a line: CCK-8 proliferation, NCI-H1975 (H1975). It is filed as cell-based, Human. Conditions: Homo sapiens, NCI-H1975; CCK-8; 96 hours; read-out: Inhibitory activity (IC50) on tumor cell proliferation, H1975. A digest of the protocol: as §3
Experiment [5] relates to HCC827. The experiment in a line: CCK-8 proliferation, HCC827. It counts as cell-based, Human. Conditions: Homo sapiens, HCC827; CCK-8; 96 hours; read-out: Inhibitory activity (IC50) on tumor cell proliferation, HCC827. The procedure, abridged: as §3
The test system of experiment [6] is EGFR. The experiment in a line: Western blot degradation of EGFR (H1975 Cell). The following applies: Table D2. It is filed as cell-based, Human. The procedure, abridged: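 Degradation is assessed by immunoblotting lysates of treated cells. Target bands are quantified by grayscale and normalised to an internal control, so degradation rate equals 100% minus % remaining.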
(In general: In western blotting, separated proteins are transferred to a membrane and probed.)

Experiment [7] has as its system SW620. Put plainly: CCK-8 proliferation, SW620. Conditions: Homo sapiens, SW-620; CCK-8; 96 hours; read-out: Inhibitory activity (IC50) on tumor cell proliferation, SW620. It counts as cell-based. The method, then:
as §1, §2

The subject of experiment [8] is H2228. The experiment in a line: CCK-8 proliferation, NCI-H2228 (H2228). It is filed as cell-based. Conditions: Homo sapiens, NCI-H2228; CCK-8; 96 hours; read-out: Inhibitory activity (IC50) on tumor cell proliferation, H2228. A digest of the protocol:
as §3

A value given as a limit tells only on which side of the number the result lay.

Consider `CN(Cc1ccc(C2CCC(=O)NC2=O)cc1)C1CCN(c2ccc(C(N)=O)c(-c3ccc(Oc4ccccc4)cc3)n2)CC1` (stereo not shown) [GT-03828, 6-(4-((4-(2,6-dioxopiperidin-3-yl)benzyl)(methyl)amino)piperidin-1-yl)-2-(4-phenoxyphenyl)nicotinamide], for which the IC50 in experiment [1] lay in the range of 500 to 1000 nM.

As to `COc1cc(N2CCN(Cc3cccc(N4CCC(=O)NC4=O)c3)CC2)c(C)cc1Nc1ncc(Br)c(Nc2ccc3nccnc3c2P(C)(C)=O)n1` [GT-04206, 1-(3-((4-(4-((5-bromo-4-((5-(dimethylphosphoryl)quinoxalin-6-yl)amino)pyrimidin-2-yl)amino)-5-methoxy-2-methylphenyl)piperazin-1-yl)methyl)phenyl)dihydropyrimidine-2,4(1H,3H)-dione], the IC50 in experiment [2], in experiment [3], in experiment [4] and in experiment [5] was 100 to 500 nM throughout. In addition, the “Degradation of substrate protein EGFR (substrate protein remaining %)” value (“Degradation … (substrate protein remaining %)” for short) in experiment [6] is reported as “A (A is defined as 0% ≤ substrate protein remaining % ≤ 80%)”.

On to `COc1cc(N2CCC(N(C)Cc3cccc(N4CCC(=O)NC4=O)c3)CC2)c(C)cc1Nc1ncc(Br)c(Nc2ccc3nccnc3c2P(C)(C)=O)n1` [GT-04214, 1-(3-(((1-(4-((5-bromo-4-((5-(dimethylphosphoryl)quinoxalin-6-yl)amino)pyrimidin-2-yl)amino)-5-methoxy-2-methylphenyl)piperidin-4-yl)(methyl)amino)methyl)phenyl)dihydropyrimidine-2,4(1H,3H)-dione], for which the IC50 lay in the range of 50 to 100 nM in experiment [2], 100 to 500 nM in experiment [3], 10 to 50 nM in experiment [4] and 100 to 500 nM in experiment [5]. For the same molecule, the “Degradation … (substrate protein remaining %)” value in experiment [6] is recorded as “A (A is defined as 0% ≤ substrate protein remaining % ≤ 80%)”.

For the molecule `COc1cc(N2CCC(N3CCN(Cc4cccc(N5CCC(=O)NC5=O)c4)CC3)CC2)c(C)cc1Nc1ncc(Br)c(Nc2ccc3nccnc3c2P(C)(C)=O)n1` [GT-04260, 1-(3-((4-(1-(4-((5-bromo-4-((5-(dimethylphosphoryl)quinoxalin-6-yl)amino)pyrimidin-2-yl)amino)-5-methoxy-2-methylphenyl)piperidin-4-yl)piperazin-1-yl)methyl)phenyl)dihydropyrimidine-2,4(1H,3H)-dione], the IC50 in experiment [2] lay within 50 to 100 nM; in experiment [3], 100 to 500 nM; in experiment [4], 50 to 100 nM; in experiment [5], 50 to 100 nM. Also, the “Degradation … (substrate protein remaining %)” value in experiment [6] is “A (A is defined as 0% ≤ substrate protein remaining % ≤ 80%)”.

Turning to `NC(=O)c1ncc(N2CCCCC2)nc1Nc1ccc(C2CCN(Cc3ccc(C4CCC(=O)NC4=O)cc3)CC2)cc1` (stereo not shown) [GT-04785, 3-((4-(1-(4-(2,6-dioxopiperidin-3-yl)benzyl)piperidin-4-yl)phenyl)amino)-5-(piperidin-1-yl)pyrazine-2-carboxamide], the IC50 in experiment [7] is 500 to 1000 nM; in experiment [8], 100 to 500 nM; in experiment [1] it was 100 to 500 nM; in experiment [2] it was 100 to 500 nM; in experiment [4], 500 to 1000 nM.

Consider `NC(=O)c1ncc(N2CCCCC2)nc1Nc1ccc(C2CCN(Cc3cccc(N4CCC(=O)NC4=O)c3)CC2)cc1` [GT-04787, 3-((4-(1-(3-(2,4-dioxotetrahydropyrimidin-1(2H)-yl)benzyl)piperidin-4-yl)phenyl)amino)-5-(piperidin-1-yl)pyrazine-2-carboxamide], for which the IC50 in experiment [8] lay within 100 to 500 nM; in experiment [1], 500 to 1000 nM; in experiment [2], 100 to 500 nM; in experiment [4], 500 to 1000 nM.

For `NC(=O)c1ncc(N2CCCCC2)nc1Nc1ccc(C2CCN(Cc3cccc(NC4CCC(=O)NC4=O)c3)CC2)cc1` (stereo not shown) [GT-04791, 3-((4-(1-(3-((2,6-dioxopiperidin-3-yl)amino)benzyl)piperidin-4-yl)phenyl)amino)-5-(piperidin-1-yl)pyrazine-2-carboxamide], the IC50 in experiment [7] is 500 to 1000 nM; in experiment [8] it was 100 to 500 nM; in experiment [1], less than 1 nM; in experiment [2] it was 500 to 1000 nM.

Take `CN1CCN([C@@H]2CCCN(c3cnc(C(N)=O)c(Nc4ccc(C5CCN(Cc6cccc(N7CCC(=O)NC7=O)c6)CC5)cc4)n3)C2)C1=O` [GT-04800, (R)-3-((4-(1-(3-(2,4-dioxotetrahydropyrimidin-1(2H)-yl)benzyl)piperidin-4-yl)phenyl)amino)-5-(3-(3-methyl-2-oxoimidazolidin-1-yl)piperidin-1-yl)pyrazine-2-carboxamide]: the IC50 in experiment [8] lay in the range of 500 to 1000 nM; in experiment [1], 500 to 1000 nM; in experiment [2] it was 100 to 500 nM.

As to `CN1CCN([C@@H]2CCCN(c3cnc(C(N)=O)c(Nc4ccc(C5CCN(Cc6ccc(N7CCC(=O)NC7=O)cc6)CC5)cc4)n3)C2)C1=O` [GT-04802, (R)-3-((4-(1-(4-(2,4-dioxotetrahydropyrimidin-1(2H)-yl)benzyl)piperidin-4-yl)phenyl)amino)-5-(3-(3-methyl-2-oxoimidazolidin-1-yl)piperidin-1-yl)pyrazine-2-carboxamide], the IC50 in experiment [8] was 100 to 500 nM; in experiment [1] it was 100 to 500 nM; in experiment [2], 100 to 500 nM; in experiment [4], 500 to 1000 nM.

In the case of `O=C1CCC(c2ccc(CN3CCN(C4CCN(c5ccc(Nc6ncc7nc(Nc8ccccc8)n(C8CCCC8)c7n6)cc5)CC4)CC3)cc2)C(=O)N1` (stereo not shown) [GT-05915, 3-(4-((4-(1-(4-((9-cyclopentyl-8-(phenylamino)-9H-purin-2-yl)amino)phenyl)piperidin-4-yl)piperazin-1-yl)methyl)phenyl)piperidine-2,6-dione], the IC50 in experiment [2] was 1 to 10 nM; in experiment [3], 500 to 1000 nM; in experiment [4], 50 to 100 nM; in experiment [5], 1 to 10 nM. Besides, in experiment [6], the “Degradation … (substrate protein remaining %)” value is given as “A (A is defined as 0% ≤ substrate protein remaining % ≤ 80%)”.

For `O=C1CCN(c2ccc(CN3CCN(C4CCN(c5ccc(Nc6ncc7nc(Nc8ccccc8)n(C8CCCC8)c7n6)cc5)CC4)CC3)cc2)C(=O)N1` [GT-05917, 1-(4-((4-(1-(4-((9-cyclopentyl-8-(phenylamino)-9H-purin-2-yl)amino)phenyl)piperidin-4-yl)piperazin-1-yl)methyl)phenyl)dihydropyrimidine-2,4(1H,3H)-dione], the IC50 in experiment [2] lay within 1 to 10 nM; in experiment [3], 500 to 1000 nM; in experiment [4], 100 to 500 nM; in experiment [5] it was 1 to 10 nM. Also, the “Degradation … (substrate protein remaining %)” value in experiment [6] is given as “A (A is defined as 0% ≤ substrate protein remaining % ≤ 80%)”.

With `COc1cc(N2CCN(Cc3ccc(N4CCC(=O)NC4=O)nc3)CC2)c(C)cc1Nc1ncc(Br)c(Nc2ccc3nccnc3c2P(C)(C)=O)n1` [GT-05947, 1-(5-((4-(4-((5-bromo-4-((5-(dimethylphosphoryl)quinoxalin-6-yl)amino)pyrimidin-2-yl)amino)-5-methoxy-2-methylphenyl)piperazin-1-yl)methyl)pyridin-2-yl)dihydropyrimidine-2,4(1H,3H)-dione], the IC50 fell in the range of 50 to 100 nM in experiment [2], 100 to 500 nM in experiment [3], 100 to 500 nM in experiment [4] and 100 to 500 nM in experiment [5]. The “Degradation … (substrate protein remaining %)” value in experiment [6] is recorded as “A (A is defined as 0% ≤ substrate protein remaining % ≤ 80%)”.

For `CC(C)n1nc(N2CCC(N(C)Cc3ccc(N4CCC(=O)NC4=O)cc3)CC2)c2cnc(Nc3ccnc(-c4cnn(S(=O)(=O)C5CC5)c4)n3)cc21` [GT-06021, 1-(4-(((1-(6-((2-(1-(cyclopropylsulfonyl)-1H-pyrazol-4-yl)pyrimidin-4-yl)amino)-1-isopropyl-1H-pyrazolo[4,3-c]pyridin-3-yl)piperidin-4-yl)(methyl)amino)methyl)phenyl)dihydropyrimidine-2,4(1H,3H)-dione], the IC50 in experiment [2] lay in the range of 100 to 500 nM; in experiment [3] it was 500 to 1000 nM; in experiment [5], 100 to 500 nM. Besides, the “Degradation … (substrate protein remaining %)” value in experiment [6] is “A (A is defined as 0% ≤ substrate protein remaining % ≤ 80%)”.
